For experiment [1], the species on record is Felis catus. Kind of experiment: Compound tested for contractility in isolated cat papillary muscle at 10 e-4 M. Format: functional.
For experiment [2], the species on record is Felis catus. Kind of experiment: Compound tested for contractility in isolated cat papillary muscle at 10 e-5 M. The format is functional.
For experiment [3], the species on record is Felis catus. Briefly: Response ratio = (percent increase to drug)/(percent increase to 10 E-4 M isoproterenol). The format is functional.
Experiment [4] is filed under the species Felis catus. Kind of experiment: Response ratio = (percent increase to drug)/(percent increase to 10 E-5 M isoproterenol). The format is functional.
Experiment [5] is filed under the species Felis catus. Kind of experiment: Response ratio = (percent increase to drug)/(percent increase to 10 E-6 M isoproterenol). The format is functional.
The species entered for experiment [6] is Felis catus. Kind of experiment: Compound tested for contractility in isolated cat papillary muscle at 10 e-6 M. Format: functional.
Experiment [7] relates to Canis familiaris. Briefly: Compound tested for contractility in anesthetized dog when administered intravenously. Format: functional. Particulars: Canis lupus familiaris, iv.
Experiment [8] deals with Canis familiaris. Kind of experiment: Percent change in heart rate in anesthetized dog. The format is functional, Canis lupus familiaris.
The subject of experiment [9] is Canis familiaris. Kind of experiment: Percent change in mean arterial blood pressure in anesthetized dog. The format is functional, Canis lupus familiaris.
Experiment [10] deals with Canis familiaris. Briefly: maximum percent increase in contractility in anesthetized dog when administered 4 mg/Kg intravenously. Format: functional, Canis lupus familiaris.
The test system of experiment [11] is Canis familiaris. Kind of experiment: Compound tested for contractility in anesthetized dog when administered intravenously; ED50 not obtained. The format is functional, organism-based. To be noted: Canis lupus familiaris.
In experiment [12] the test system is Canis familiaris. Briefly: Percent change in heart rate in anesthetized dog; ED50 not obtained. Particulars: Canis lupus familiaris. Format: functional, organism-based.
Experiment [13] has as its system Canis familiaris. Kind of experiment: Percent change in mean arterial blood pressure in anesthetized dog; ED50 not obtained. The format is functional, organism-based. To be noted: Canis lupus familiaris.

We go through 6 compounds from ChEMBL document CHEMBL1123114, “Structure-activity relationships of arylimidazopyridine cardiotonics: discovery and inotropic activity of 2-[2-methoxy-4-(methylsulfinyl)phenyl]-1H-imidazo[4,5-c]pyridine” (1985).

The structures appear in SMILES notation.

What is called ED50 is the dose at which the effect has come halfway, by size or by number of responders. Higher therefore signals a need for a large dose. As to `COc1cc([N+](=O)[O-])ccc1-c1nc2cc[nH]cc-2n1`, the Control amounted to 144% in the experiment listed under Felis catus [1], 142% in the experiment filed under Felis catus [2] and 127% in the experiment filed under Felis catus [6]. In addition, the Response ratio is 0.61 in the experiment listed under Felis catus [3], 0.58 in the experiment filed under Felis catus [4] and 0.38 in the experiment filed under Felis catus [5]. This compound also yielded an ED50 in the experiment on Canis familiaris [7] of 0.015 mg/kg. Moreover, the Change in the experiment with Canis familiaris [8] was 5%; with Canis familiaris [9], -23%.

Consider `CCOc1cc([S+](C)[O-])ccc1-c1nc2cc[nH]cc-2n1` (centres undefined), for which the Control amounted to 262% in the experiment filed under Felis catus [1], 183% in the experiment listed under Felis catus [2] and 113% in the experiment filed under Felis catus [6]. The Response ratio in the experiment filed under Felis catus [3] amounted to 2.25; in the experiment filed under Felis catus [4], 1.15; in the experiment listed under Felis catus [5], 0.18. The ED50 in the experiment with Canis familiaris [7] is 0.1 mg/kg. The Change with Canis familiaris [8] is given as 14%; with Canis familiaris [9] it was -4%.

Consider `COc1cc(Oc2ccccc2)ccc1-c1nc2cc[nH]cc-2n1`, for which the values for the Control in the experiment listed under Felis catus [1] and in the experiment listed under Felis catus [2] were 155% and 122%, respectively. The Response ratio in the experiment listed under Felis catus [3] is given as 0.76; in the experiment listed under Felis catus [4], 0.3. The compound further showed an Increase in the experiment with Canis familiaris [10] of under 50%.

For `CN(C)c1ccc(-c2nc3cc[nH]cc-3n2)cc1`, the Control worked out at 175% in the experiment filed under Felis catus [1] and 94% in the experiment listed under Felis catus [2]. Further, the results for the Response ratio in the experiment listed under Felis catus [3] and in the experiment filed under Felis catus [4] were 1.04 and -0.08, respectively. In the experiment on Canis familiaris [10], this compound displayed an Increase of under 50%.

For the compound `COc1ccc(-c2nc3cccnc3[nH]2)cc1`, the Control in the experiment filed under Felis catus [1] was found to be 173%; in the experiment filed under Felis catus [2], 104%. Also, the results for the Response ratio in the experiment filed under Felis catus [3] and in the experiment filed under Felis catus [4] were 1.01 and 0.06, respectively. Further, the ED50 result in the experiment with Canis familiaris [11], in the experiment on Canis familiaris [12] and with Canis familiaris [13] was “ED50 not obtained” throughout.

In the case of `COc1cc(Cl)ccc1-c1nc2cc[nH]cc-2n1`, the Control in the experiment filed under Felis catus [1] was 165%; in the experiment listed under Felis catus [2], 162%; in the experiment listed under Felis catus [6] it was 123%. In addition, the Response ratio in the experiment filed under Felis catus [3] is recorded as 0.9; in the experiment listed under Felis catus [4], 0.86; in the experiment listed under Felis catus [5], 0.32. The compound also registered an ED50 in the experiment on Canis familiaris [7] of 0.23 mg/kg. The figures for the Change in the experiment on Canis familiaris [8] and in the experiment with Canis familiaris [9] were 14% and -21%, respectively.
